Measured values as given in ChEMBL document CHEMBL1201861, “Genomics of Drug Sensitity in Cancer screening data, Wellcome Trust Sanger Institute”.

What was measured:
Experiment in all cases: cells
HTC-C3 = type: functional, cell-based; conditions: Homo sapiens;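 also: inhibition of cell growth, read out with a cell viability assay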
Description: SANGER: Inhibition of human HTC-C3 cell growth in a cell viability assay.

KYSE-150 cell line = type: functional, cell-based; conditions: Homo sapiens;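 also: growth inhibition of human KYSE-150 cells, read out with a cell viability assay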
Description: SANGER: Inhibition of human KYSE-150 cell growth in a cell viability assay.

RPMI-2650 = type: functional, cell-based; conditions: Homo sapiens
Description: SANGER: Inhibition of human RPMI-2650 cell growth in a cell viability assay.

SiHa = type: functional, cell-based; conditions: Homo sapiens;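 also: Viability-based readout of growth inhibition in SiHa cells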
Description: SANGER: Inhibition of human SiHa cell growth in a cell viability assay.

23132-87 = type: functional, cell-based; conditions: Homo sapiens
Description: SANGER: Inhibition of human 23132-87 cell growth in a cell viability assay.

A-375 = type: functional, cell-based; conditions: Homo sapiens;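 also: growth inhibition of A375 cells, read out with a cell viability assay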
Description: SANGER: Inhibition of human A375 cell growth in a cell viability assay.

NY = type: functional, cell-based; conditions: Homo sapiens
Description: SANGER: Inhibition of human NY cell growth in a cell viability assay.

769-P = type: functional, cell-based; conditions: Homo sapiens
Description: SANGER: Inhibition of human 769-P cell growth in a cell viability assay.

MDA-MB-231 = type: functional, cell-based; conditions: Homo sapiens
Description: SANGER: Inhibition of human MDA-MB-231 cell growth in a cell viability assay.

HO-1-N-1 = type: functional, cell-based; conditions: Homo sapiens;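 also: growth inhibition of human HO-1-N-1 cells, read out with a cell viability assay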
Description: SANGER: Inhibition of human HO-1-N-1 cell growth in a cell viability assay.

Calu-3 = type: functional, cell-based; conditions: Homo sapiens;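 also: growth inhibition of human Calu-3 cells, determined with a cell viability assay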
Description: SANGER: Inhibition of human Calu-3 cell growth in a cell viability assay.

UO-31 = type: functional, cell-based; conditions: Homo sapiens;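 also: cell viability assay measuring inhibition of cell growth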
Description: SANGER: Inhibition of human U031 cell growth in a cell viability assay.

SK-MEL-30 = type: functional, cell-based; conditions: Homo sapiens;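 also: growth inhibition of SK-MEL-30 cells, determined with a cell viability assay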
Description: SANGER: Inhibition of human SK-MEL-30 cell growth in a cell viability assay.

HT-1376 = type: functional, cell-based; conditions: Homo sapiens
Description: SANGER: Inhibition of human HT-1376 cell growth in a cell viability assay.

ESS-1 = type: functional, cell-based; conditions: Homo sapiens;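 also: growth inhibition of human ESS-1 cells, read out by a cell viability assay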
Description: SANGER: Inhibition of human ESS-1 cell growth in a cell viability assay.

HCC1937 = type: functional, cell-based; conditions: Homo sapiens;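 also: growth inhibition measured with a cell viability read-out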
Description: SANGER: Inhibition of human HCC1937 cell growth in a cell viability assay.

D-542MG = type: functional, cell-based; conditions: Homo sapiens
Description: SANGER: Inhibition of human D-542MG cell growth in a cell viability assay.

SW1990 = type: functional, cell-based; conditions: Homo sapiens;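 also: cell growth inhibition determined with a viability assay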
Description: SANGER: Inhibition of human SW1990 cell growth in a cell viability assay.

SW626 = type: functional, cell-based; conditions: Homo sapiens;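 also: growth inhibition of SW626 cells, measured with a cell viability assay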
Description: SANGER: Inhibition of human SW626 cell growth in a cell viability assay.

SW756 = type: functional, cell-based; conditions: Homo sapiens;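 also: growth inhibition of human SW756 cells, read out with a cell viability assay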
Description: SANGER: Inhibition of human SW756 cell growth in a cell viability assay.

OVCAR-5 = type: functional, cell-based; conditions: Homo sapiens;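 also: growth inhibition of human OVCAR-5 cells, read out with a cell viability assay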
Description: SANGER: Inhibition of human OVCAR-5 cell growth in a cell viability assay.

COLO-792 = type: functional, cell-based; conditions: Homo sapiens
Description: SANGER: Inhibition of human COLO-792 cell growth in a cell viability assay.

VMRC-RCZ = type: functional, cell-based; conditions: Homo sapiens;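 also: growth inhibition measured with a cell viability assay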
Description: SANGER: Inhibition of human VMRC-RCZ cell growth in a cell viability assay.

NCI-H2228 = type: functional, cell-based; conditions: Homo sapiens;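 also: growth inhibition of human NCI-H2228 cells, read out by a cell viability assay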
Description: SANGER: Inhibition of human NCI-H2228 cell growth in a cell viability assay.

NCI-H596 = type: functional, cell-based; conditions: Homo sapiens;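 also: growth inhibition of NCI-H596 cells, read out with a cell viability assay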
Description: SANGER: Inhibition of human NCI-H596 cell growth in a cell viability assay.

BFTC-905 = type: functional, cell-based; conditions: Homo sapiens
Description: SANGER: Inhibition of human BFTC-905 cell growth in a cell viability assay.

786-0 = type: functional, cell-based; conditions: Homo sapiens
Description: SANGER: Inhibition of human 786-0 cell growth in a cell viability assay.

COR-L105 = type: functional, cell-based; conditions: Homo sapiens;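 also: cell growth inhibition determined with a viability assay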
Description: SANGER: Inhibition of human COR-L105 cell growth in a cell viability assay.

RD = type: functional, cell-based; conditions: Homo sapiens
Description: SANGER: Inhibition of human RD cell growth in a cell viability assay.

647-V = type: functional, cell-based; conditions: Homo sapiens;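 also: growth inhibition of 647-V cells, read out with a cell viability assay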
Description: SANGER: Inhibition of human 647-V cell growth in a cell viability assay.

LK-2 = type: functional, cell-based; conditions: Homo sapiens;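 also: growth inhibition of LK-2 cells, read out with a viability assay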
Description: SANGER: Inhibition of human LK-2 cell growth in a cell viability assay.

HOS = type: functional, cell-based; conditions: Homo sapiens;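 also: growth inhibition of human HOS cells, read out with a cell viability assay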
Description: SANGER: Inhibition of human HOS cell growth in a cell viability assay.

SNU-449 = type: functional, cell-based; conditions: Homo sapiens
Description: SANGER: Inhibition of human SNU-449 cell growth in a cell viability assay.

HN = type: functional, cell-based; conditions: Homo sapiens
Description: SANGER: Inhibition of human HN cell growth in a cell viability assay.

RERF-LC-MS = type: functional, cell-based; conditions: Homo sapiens;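 also: growth inhibition of human RERF-LC-MS cells, read out by a cell viability assay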
Description: SANGER: Inhibition of human RERF-LC-MS cell growth in a cell viability assay.

GMS-10 = type: functional, cell-based; conditions: Homo sapiens;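 also: growth inhibition of GMS-10 cells, read out as cell viability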
Description: SANGER: Inhibition of human GMS-10 cell growth in a cell viability assay.

CAL-27 = type: functional, cell-based; conditions: Homo sapiens;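 also: Viability-based readout, IC50 reflecting inhibition of CAL-27 cell growth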
Description: SANGER: Inhibition of human CAL-27 cell growth in a cell viability assay.

BHY = type: functional, cell-based; conditions: Homo sapiens;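 also: cell growth inhibition read out by a viability assay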
Description: SANGER: Inhibition of human BHY cell growth in a cell viability assay.

8505C = type: functional, cell-based; conditions: Homo sapiens
Description: SANGER: Inhibition of human 8505C cell growth in a cell viability assay.

MDA-MB-415 = type: functional, cell-based; conditions: Homo sapiens
NCI-H2170 = type: functional, cell-based; conditions: Homo sapiens;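 also: cell viability assay measuring growth inhibition of human NCI-H2170 cancer cells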
Description: SANGER: Inhibition of human NCI-H2170 cell growth in a cell viability assay.

SK-HEP1 = type: functional, cell-based, SK-HEP-1; conditions: Homo sapiens;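 also: cell viability readout used to quantify reduction in proliferation of human SK-HEP-1 cells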
Description: SANGER: Inhibition of human SK-HEP-1 cell growth in a cell viability assay.

CAL-12T = type: functional, cell-based, Homo sapiens; conditions: Homo sapiens, CAL-12T;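 also: growth inhibition of human CAL-12T cells, read out with a cell viability assay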
Description: SANGER: Inhibition of human CAL-12T cell growth in a cell viability assay.

NCI-H2030 = type: functional, cell-based; conditions: Homo sapiens;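 also: growth inhibition of human NCI-H2030 cells, read out by a cell viability assay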
Description: SANGER: Inhibition of human NCI-H2030 cell growth in a cell viability assay.

CAL-54 = type: functional, cell-based; conditions: Homo sapiens;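 also: growth inhibition of CAL-54 cells, read out by a viability measurement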
Description: SANGER: Inhibition of human CAL-54 cell growth in a cell viability assay.

A 172 = type: functional, cell-based; conditions: Homo sapiens;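 also: growth inhibition of A172 cells, measured with a cell viability readout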
Description: SANGER: Inhibition of human A172 cell growth in a cell viability assay.

NB12 = type: functional, cell-based; conditions: Homo sapiens;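 also: growth inhibition of human NB12 cells, read out by a cell viability assay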
Description: SANGER: Inhibition of human NB12 cell growth in a cell viability assay.

MFE-280 = type: functional, cell-based; conditions: Homo sapiens;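 also: growth inhibition of MFE-280 cells, determined with a cell viability readout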
Description: SANGER: Inhibition of human MFE-280 cell growth in a cell viability assay.

SK-OV-3 = type: functional, cell-based; conditions: Homo sapiens;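 also: growth inhibition of SK-OV-3 human cells, read out with a cell viability assay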
Description: SANGER: Inhibition of human SK-OV-3 cell growth in a cell viability assay.

SMILES: COc1cc(Nc2c(C#N)cnc3cc(OCCCN4CCN(C)CC4)c(OC)cc23)c(Cl)cc1Cl [BOSUTINIB]
- IC50 (HTC-C3): > 2000 nM
- IC50 (KYSE-150 cell line): > 2000 nM
- IC50 (RPMI-2650): > 2000 nM
- IC50 (SiHa): > 2000 nM
- IC50 (23132-87): > 2000 nM
- IC50 (A-375): 1520 nM
- IC50 (NY): > 2000 nM
- IC50 (769-P): 1700 nM
- IC50 (MDA-MB-231): > 2000 nM
- IC50 (HO-1-N-1): 1260 nM
- IC50 (Calu-3): > 2000 nM
- IC50 (UO-31): > 2000 nM
- IC50 (SK-MEL-30): > 2000 nM
- IC50 (HT-1376): 1640 nM
- IC50 (ESS-1): > 2000 nM
- IC50 (HCC1937): > 2000 nM
- IC50 (D-542MG): > 2000 nM
- IC50 (SW1990): > 2000 nM
- IC50 (SW626): > 2000 nM
- IC50 (SW756): 140 nM
- IC50 (OVCAR-5): > 2000 nM
- IC50 (COLO-792): > 2000 nM
- IC50 (VMRC-RCZ): > 2000 nM
- IC50 (NCI-H2228): > 2000 nM
- IC50 (NCI-H596): > 2000 nM
- IC50 (BFTC-905): > 2000 nM
- IC50 (786-0): > 2000 nM
- IC50 (COR-L105): 1000 nM
- IC50 (RD): > 2000 nM
- IC50 (647-V): > 2000 nM
- IC50 (LK-2): > 2000 nM
- IC50 (HOS): > 2000 nM
- IC50 (SNU-449): > 2000 nM
- IC50 (HN): 1900 nM
- IC50 (RERF-LC-MS): > 2000 nM
- IC50 (GMS-10): > 2000 nM
- IC50 (CAL-27): 929 nM
- IC50 (BHY): 1230 nM
- IC50 (8505C): > 2000 nM
- IC50 (MDA-MB-415): > 2000 nM
- IC50 (NCI-H2170): > 2000 nM
- IC50 (SK-HEP1): > 2000 nM
- IC50 (CAL-12T): > 2000 nM
- IC50 (NCI-H2030): > 2000 nM
- IC50 (CAL-54): 1660 nM
- IC50 (A 172): > 2000 nM
- IC50 (NB12): > 2000 nM
- IC50 (MFE-280): > 2000 nM
- IC50 (SK-OV-3): > 2000 nM

SMILES: C[C@]12O[C@H](C[C@]1(O)CO)n1c3ccccc3c3c4c(c5c6ccccc6n2c5c31)CNC4=O [LESTAURTINIB]
- IC50 (HTC-C3): 186 nM
- IC50 (KYSE-150 cell line): 651 nM
- IC50 (RPMI-2650): 1190 nM
- IC50 (SiHa): > 2000 nM
- IC50 (23132-87): 838 nM
- IC50 (A-375): 332 nM
- IC50 (NY): > 2000 nM
- IC50 (769-P): 1610 nM
- IC50 (MDA-MB-231): 586 nM
- IC50 (HO-1-N-1): 298 nM
- IC50 (Calu-3): > 2000 nM
- IC50 (UO-31): > 2000 nM
- IC50 (SK-MEL-30): 512 nM
- IC50 (HT-1376): > 2000 nM
- IC50 (ESS-1): 682 nM
- IC50 (HCC1937): > 2000 nM
- IC50 (D-542MG): > 2000 nM
- IC50 (SW1990): 1380 nM
- IC50 (SW626): 1130 nM
- IC50 (SW756): 630 nM
- IC50 (OVCAR-5): 504 nM
- IC50 (COLO-792): > 2000 nM
- IC50 (VMRC-RCZ): 82.9 nM
- IC50 (NCI-H2228): > 2000 nM
- IC50 (NCI-H596): > 2000 nM
- IC50 (BFTC-905): 250 nM
- IC50 (786-0): 1560 nM
- IC50 (COR-L105): > 2000 nM
- IC50 (RD): > 2000 nM
- IC50 (647-V): 1000 nM
- IC50 (LK-2): 428 nM
- IC50 (HOS): 232 nM
- IC50 (SNU-449): > 2000 nM
- IC50 (HN): 182 nM
- IC50 (RERF-LC-MS): 812 nM
- IC50 (GMS-10): 463 nM
- IC50 (CAL-27): 437 nM
- IC50 (BHY): 872 nM
- IC50 (8505C): 302 nM
- IC50 (MDA-MB-415): > 2000 nM
- IC50 (NCI-H2170): > 2000 nM
- IC50 (SK-HEP1): 31.3 nM
- IC50 (CAL-12T): 870 nM
- IC50 (NCI-H2030): 1320 nM
- IC50 (CAL-54): 178 nM
- IC50 (A 172): 1940 nM
- IC50 (NB12): 1310 nM
- IC50 (MFE-280): > 2000 nM
- IC50 (SK-OV-3): 224 nM

SMILES: Cn1cc(/C=C2\C(=O)Nc3cccnc32)c2ccccc21
- IC50 (HTC-C3): > 2000 nM
- IC50 (KYSE-150 cell line): > 2000 nM
- IC50 (RPMI-2650): > 2000 nM
- IC50 (SiHa): > 2000 nM
- IC50 (23132-87): > 2000 nM
- IC50 (A-375): > 2000 nM
- IC50 (NY): > 2000 nM
- IC50 (769-P): > 2000 nM
- IC50 (MDA-MB-231): > 2000 nM
- IC50 (HO-1-N-1): > 2000 nM
- IC50 (Calu-3): > 2000 nM
- IC50 (UO-31): > 2000 nM
- IC50 (SK-MEL-30): > 2000 nM
- IC50 (HT-1376): > 2000 nM
- IC50 (ESS-1): > 2000 nM
- IC50 (HCC1937): > 2000 nM
- IC50 (D-542MG): > 2000 nM
- IC50 (SW1990): > 2000 nM
- IC50 (SW626): > 2000 nM
- IC50 (SW756): 440 nM
- IC50 (OVCAR-5): > 2000 nM
- IC50 (COLO-792): > 2000 nM
- IC50 (VMRC-RCZ): > 2000 nM
- IC50 (NCI-H2228): > 2000 nM
- IC50 (NCI-H596): > 2000 nM
- IC50 (BFTC-905): > 2000 nM
- IC50 (786-0): > 2000 nM
- IC50 (COR-L105): 494 nM
- IC50 (RD): > 2000 nM
- IC50 (647-V): > 2000 nM
- IC50 (LK-2): > 2000 nM
- IC50 (HOS): > 2000 nM
- IC50 (SNU-449): > 2000 nM
- IC50 (HN): > 2000 nM
- IC50 (RERF-LC-MS): > 2000 nM
- IC50 (GMS-10): > 2000 nM
- IC50 (CAL-27): > 2000 nM
- IC50 (BHY): > 2000 nM
- IC50 (8505C): > 2000 nM
- IC50 (MDA-MB-415): > 2000 nM
- IC50 (NCI-H2170): > 2000 nM
- IC50 (SK-HEP1): > 2000 nM
- IC50 (CAL-12T): > 2000 nM
- IC50 (NCI-H2030): > 2000 nM
- IC50 (CAL-54): > 2000 nM
- IC50 (A 172): > 2000 nM
- IC50 (NB12): > 2000 nM
- IC50 (MFE-280): > 2000 nM
- IC50 (SK-OV-3): 397 nM
